# Columns and labels:
# Format in all cases: cell-based, Pseudomonas aeruginosa
# [1] = tested on: P. aeruginosa strain PAR 5 biofilm; assay: Reduction of biofilm growth (percent vs culture control)
# Source text: (§1) FIG. 4A represents the effect of the tested compounds (1, 2, 3 and 4) on exopolysaccharide biosynthesis in the early stages and mature P. aeruginosa biofilm formation, strain PAR 5. The abscissa represents the time (in hours) in order to differentiate early biofilm and mature biofilm, and the ordinate represents the percentage of the biofilm reduction.
# (§2) Early biofilm model: formation of early biofilm under influence of the tested substances was observed by filling wells of a 96-well plate with 20 μl of P. aeruginosa suspension and 180 μl of TSB, as described above. Tested iminosugars (compounds 1, 2, 3 and 4) were added immediately after setting-up the bacteria at a final concentration of 0.9 mM. Then, the plate was gently mixed and incubated for 48 hours at 37° C.
# (§3) Mature biofilm model: the tested substances were added 48 hours after adherence of bacteria to the wells in a 96-well plate. The growth conditions of P. aeruginosa were exactly the same, as described above for the early biofilm model.
# (§4) The effect of the tested compounds (1, 2, 3 and 4) on the reduction of biofilm growth has also been studied on the three P. aeruginosa strains PAR 5, PAR 20, PAR 50.
# (§5) (Percent decrease in biofilm thickness was obtained as a mean value from 3 consecutive measurements of the Congo Red stained biofilm using spectrophotometer after addition of the tested iminosugars in comparison to control regarded as 100%).
# [2] = tested on: P. aeruginosa strain PAR 50 biofilm; assay: Mature biofilm model, Congo red staining; details: for absorbance (Congo red, biofilm development): mature biofilm, compound added 48 h after induction of biofilm
# Protocol: (§6) Biofilm quantity was determined using Congo red dye according to a modified procedure described by Allison et al. (Allison G C, Sutherland I W. A staining technique for bacteria and its correlation to extracellular carbohydrate production. J Microbiol Meth 2, 93-99 (1984)).
# (§7) Briefly, at different time points (0, 6, 18, 24, 48 and 72 hours), the culture medium was gently removed from wells by using the pipette and immediately 200 μl of 0.1% Congo red solution was added. The plates were left for 30 minutes at room temperature and then 10 minutes before the end of staining, the plate was centrifuged for 10 minutes at 2000 rpm and then washed twice with buffered saline to remove unbound dye. Absorbance was measured at λ=492 nm wavelength using spectrophotometer (Awarness Technology Inc., Palm City, Fla., USA). All measurements were performed in triplicates and mean values±SD are given.
# as §3
# (§8) After the addition of iminosugars (compounds 1, 2, 3 and 4), the biofilm formation and the number of viable bacteria were checked in the following time intervals: 48, 48.5, 56, 72, 96 hours.
# [3] = tested on: P. aeruginosa strain PAR 5 biofilm; assay: Mature biofilm model, Congo red staining; details: for absorbance (Congo red, biofilm development): mature biofilm, compound added 48 h after induction of biofilm
# Protocol: as §6, §7, §3, §8
# [4] = tested on: P. aeruginosa strain PAR 20 biofilm; assay: Mature biofilm model, Congo red staining; details: for absorbance (Congo red, biofilm development): mature biofilm, compound added 48 h after induction of biofilm
# Protocol: as §6, §7, §3, §8
# [5] = tested on: P. aeruginosa strain PAR 50 biofilm; assay: Early biofilm model, Congo red staining; details: for absorbance (Congo red, biofilm formation): early biofilm, 0.9 mM, 492 nm
# Protocol: (§9) P. aeruginosa biofilm was set-up in sterile plastic 96-well plates with adherent surface (Greiner Bio-One, USA).
# (§10) Twenty microliter quantities of the bacterial stock suspensions, prepared as described above, were added to each well followed with 180 μl of sterile TSB. Final concentration of the bacteria was 1×10^8 CFU/ml.
# (§11) The plates were centrifuged for 10 minutes at 2000 rpm to sediment bacteria on the bottom of each well and then incubated for 72 hours (37° C., aerobic conditions).
# as §6, §7, §2
# (§12) Biofilm formation and the number of viable bacteria were checked in parallel in the following time intervals: 0, 0.5, 8, 24, 48 hours, in accordance with the procedure described above. Biofilm thickness was estimated by staining it with Cango Red and measuring optical density while number of viable bacteria was performed using the standard viable count method. (Allison G C, Sutherland I W. A staining technique for bacteria and its correlation to extracellular carbohydrate production. J Microbiol Meth 2, 93-99 (1984)).
# (§13) P. aeruginosa suspension cultures in TSB broth alone were used as a control.
# [6] = tested on: P. aeruginosa strain PAR 5 biofilm; assay: Early biofilm model, Congo red staining; details: for absorbance (Congo red, biofilm formation): 0.9 mM, 492 nm
# Protocol: as §9, §10, §11, §6, §7, §2, §12, §13
# [7] = tested on: P. aeruginosa strain PAR 20 biofilm; assay: Early biofilm model, Congo red staining; details: for absorbance (Congo red, biofilm formation): early biofilm, 0.9 mM, 492 nm
# Protocol: as §9, §10, §11, §6, §7, §2, §12, §13
# [8] = tested on: P. aeruginosa strain PAR 20 biofilm; assay: Reduction of biofilm growth (percent vs culture control)
# Source text: as §1, with “4B” for “4A”, “20.” for “5.”
# as §2, §3, §4, §5
# [9] = tested on: P. aeruginosa strain PAR 20; assay: Number of viable bacteria in early and mature biofilm (viable count)
# Protocol: as §12, §8
# (§14) Numbers of viable bacteria contained in the early and mature biofilm were estimated on separate plates with wells filled with tested P. aeruginosa strains as described above (PAR 5, PAR 20, PAR 50).
# (§15) At the same time intervals, biofilm content in each well was removed and mixed by multiple pippeting and transferred to sterile tubes. Then decimal dilutions of the bacterial suspension were made in TSB broth, plated on McConkey Agar (Oxoid), and incubated at 37° C. for 24 hours.
# (§16) Numbers of colonies grown on platter were counted and total numbers of the viable bacteria calculated as colony forming units (CFU) per ml.
# (§17) The results depict logs of CFU/ml for three P. aeruginosa strains: PAR 5, PAR 20 and PAR 50 measured at different time intervals (0 hours, 8 hours, 24 hours, 48 hours, 56 hours, 72 hours and 96 hours). The detection limit is 100 CFU/ml.
# [10] = tested on: P. aeruginosa strain PAR 5; assay: as above
# Protocol: as §12, §8, §14, §15, §16, §17
# [11] = tested on: P. aeruginosa strain PAR 50; assay: as above
# Protocol: as §12, §8, §14, §15, §16, §17
# [12] = tested on: P. aeruginosa strain PAR 50 biofilm; assay: Reduction of biofilm growth (percent vs culture control)
# Source text: as §1, with “4C” for “4A”, “50.” for “5.”
# as §2, §3, §4, §5
# [13] = in comparison with culture control
smiles,measurement,setting,value
"CCCCCC[C@H]1NC[C@@H](O)[C@H](O)[C@H]1O [Compound 1, α-1-C-hexyl-1,5-dideoxy-1,5-imino-D-xylitol]",reduction of biofilm growth,[1]; 8 hours of incubation,about 90%
same,reduction of biofilm growth,[1]; 24 hours of incubation,about 90%
same,reduction of biofilm growth,[1]; 48 hours of incubation,about 25%
same,reduction of biofilm growth,[1]; 72 hours of incubation,about 10%
same,effect on biofilm growth,[1]; notably an early biofilm,can reduce the biofilm growth
same,influence on mature biofilm formation,[2],weak influence
same,"absorbance (Congo red, biofilm development)",[2]; 48 hours,about 1.6 a.u.
same,"absorbance (Congo red, biofilm development)",[2]; 56 hours,about 1.5 a.u.
same,"absorbance (Congo red, biofilm development)",[2]; 72 hours,about 2.4 a.u.
same,"absorbance (Congo red, biofilm development)",[2]; 96 hours,about 1.9 a.u.
same,influence on mature biofilm formation,[3],weak influence
same,"absorbance (Congo red, biofilm development)",[3]; 48 hours,about 0.7 a.u.
same,"absorbance (Congo red, biofilm development)",[3]; 56 hours,about 1.1 a.u.
same,"absorbance (Congo red, biofilm development)",[3]; 72 hours,about 1.25 a.u.
same,"absorbance (Congo red, biofilm development)",[3]; 96 hours,about 0.5 a.u.
same,influence on mature biofilm formation,[4],weak influence
same,"absorbance (Congo red, biofilm development)",[4]; 48 hours,about 0.75 a.u.
same,"absorbance (Congo red, biofilm development)",[4]; 56 hours,about 0.6 a.u.
same,"absorbance (Congo red, biofilm development)",[4]; 72 hours,about 1.5 a.u.
same,"absorbance (Congo red, biofilm development)",[4]; 96 hours,about 1.0 a.u.
same,"absorbance (Congo red, biofilm formation)",[5]; 8 hours,about 0.5 a.u.
same,"absorbance (Congo red, biofilm formation)",[5]; 24 hours,about 0.8 a.u.
same,"absorbance (Congo red, biofilm formation)",[5]; 48 hours,about 0.9 a.u.
same,effect on formation of an early biofilm,[5]; [13],inhibit the formation of an early biofilm
same,"biofilm formation at 8 hours, 24 hours and 48 hours",[6]; early biofilm,no biofilm formation
same,"absorbance (Congo red, biofilm formation)","[6]; early biofilm, 8 hours",about 0.25 a.u.
same,"absorbance (Congo red, biofilm formation)","[6]; early biofilm, 24 hours",about 0.25 a.u.
same,"absorbance (Congo red, biofilm formation)","[6]; early biofilm, 48 hours",about 0.25 a.u.
same,effect on formation of an early biofilm,[6]; [13],inhibit the formation of an early biofilm
same,"absorbance (Congo red, biofilm formation)",[7]; 8 hours,about 1.0 a.u.
same,"absorbance (Congo red, biofilm formation)",[7]; 24 hours,about 1.0 a.u.
same,"absorbance (Congo red, biofilm formation)",[7]; 48 hours,about 0.75 a.u.
same,effect on formation of an early biofilm,[7]; [13],inhibit the formation of an early biofilm
same,reduction of biofilm growth,[8]; 8 hours of incubation,about 30%
same,reduction of biofilm growth,[8]; 24 hours of incubation,about 40%
same,reduction of biofilm growth,[8]; 48 hours of incubation,about 40%
same,reduction of biofilm growth,[8]; 72 hours of incubation,about 0%
same,effect on biofilm growth,[8]; notably an early biofilm,can reduce the biofilm growth
same,number of viable P. aeruginosa,"[9]; early biofilm, 0 h",4 × 10^6 CFU/ml
same,number of viable P. aeruginosa,"[9]; early biofilm, 8 h",7 × 10^7 CFU/ml
same,number of viable P. aeruginosa,"[9]; early biofilm, 24 h",1 × 10^8 CFU/ml
same,number of viable P. aeruginosa,"[9]; early biofilm, 48 h",4 × 10^8 CFU/ml
same,number of viable P. aeruginosa,"[9]; mature biofilm, 56 h",6 × 10^7 CFU/ml
same,number of viable P. aeruginosa,"[9]; mature biofilm, 72 h",5 × 10^7 CFU/ml
same,number of viable P. aeruginosa,"[9]; mature biofilm, 96 h",1 × 10^8 CFU/ml
same,number of viable P. aeruginosa,"[10]; early biofilm, 0 h",2 × 10^6 CFU/ml
same,number of viable P. aeruginosa,"[10]; early biofilm, 8 h",3 × 10^7 CFU/ml
same,number of viable P. aeruginosa,"[10]; early biofilm, 24 h",9 × 10^7 CFU/ml
same,number of viable P. aeruginosa,"[10]; early biofilm, 48 h",1 × 10^8 CFU/ml
same,number of viable P. aeruginosa,"[10]; mature biofilm, 56 h",3 × 10^8 CFU/ml
same,number of viable P. aeruginosa,"[10]; mature biofilm, 72 h",2 × 10^8 CFU/ml
same,number of viable P. aeruginosa,"[10]; mature biofilm, 96 h",3 × 10^8 CFU/ml
same,number of viable P. aeruginosa,"[11]; early biofilm, 0 h",8 × 10^7 CFU/ml
same,number of viable P. aeruginosa,"[11]; early biofilm, 8 h",2 × 10^8 CFU/ml
same,number of viable P. aeruginosa,"[11]; early biofilm, 24 h",4 × 10^8 CFU/ml
same,number of viable P. aeruginosa,"[11]; early biofilm, 48 h",3 × 10^8 CFU/ml
same,number of viable P. aeruginosa,"[11]; mature biofilm, 56 h",2 × 10^9 CFU/ml
same,number of viable P. aeruginosa,"[11]; mature biofilm, 72 h",1 × 10^9 CFU/ml
same,number of viable P. aeruginosa,"[11]; mature biofilm, 96 h",1 × 10^9 CFU/ml
same,reduction of biofilm growth,[12]; 8 hours of incubation,about 30%
same,reduction of biofilm growth,[12]; 24 hours of incubation,about 30%
same,reduction of biofilm growth,[12]; 48 hours of incubation,about 0%
same,reduction of biofilm growth,[12]; 72 hours of incubation,about 0%
same,effect on biofilm growth,[12]; notably an early biofilm,can reduce the biofilm growth
